NC(=O)[C@@H]1CCCN1
solubility (mole fraction)
Details	in DMF	in THF	in acetone	in acetonitrile	in cyclohexane	in ethyl acetate	in isopropanol	in n-heptane	in n-hexane	in n-propanol
278.15 K	0.0422	0.0621	0.0644	0.0557	6e-05	0.0134	0.0532	0.00025	6e-05	0.0467
283.15 K	0.0578	0.075	0.078	0.0634	9e-05	0.0179	0.0618	0.00036	9e-05	0.0597
288.15 K	0.0758	0.0885	0.0956	0.073	0.00014	0.0242	0.0795	0.00049	0.00015	0.0753
293.15 K	0.0976	0.107	0.113	0.0838	0.00022	0.0315	0.0995	0.00068	0.00023	0.0933
298.15 K	0.123	0.129	0.133	0.0951	0.00032	0.042	0.125	0.00096	0.00032	0.111
303.15 K	0.156	0.156	0.154	0.106	0.00051	0.0549	0.153	0.00131	0.00051	0.13
308.15 K	0.194	0.189	0.177	0.116	0.00079	0.0711	0.19	0.0018	0.00077	0.16
313.15 K	0.238	0.228	0.2	0.127	0.00124	0.0927	0.23	0.00239	0.00112	0.204
318.15 K	0.288	0.287	0.225	0.138	0.0017	0.121	0.28	0.00304	0.00159	0.259
323.15 K	0.347	0.362	0.252	0.148	0.00231	0.154	0.355	0.00401	0.00212	0.328

— BigSolDB 2.1
